Here are results for 13 compounds from US10968215B2 (SHANGHAI HAIHE PHARMACEUTICAL CO., LTD., priority 2016, dated 2021).

PRC2 complex (EZH2 Y641F/EED/SUZ12/RbAp48/AEBP2), sequence (Q15910 whole entry Y641F): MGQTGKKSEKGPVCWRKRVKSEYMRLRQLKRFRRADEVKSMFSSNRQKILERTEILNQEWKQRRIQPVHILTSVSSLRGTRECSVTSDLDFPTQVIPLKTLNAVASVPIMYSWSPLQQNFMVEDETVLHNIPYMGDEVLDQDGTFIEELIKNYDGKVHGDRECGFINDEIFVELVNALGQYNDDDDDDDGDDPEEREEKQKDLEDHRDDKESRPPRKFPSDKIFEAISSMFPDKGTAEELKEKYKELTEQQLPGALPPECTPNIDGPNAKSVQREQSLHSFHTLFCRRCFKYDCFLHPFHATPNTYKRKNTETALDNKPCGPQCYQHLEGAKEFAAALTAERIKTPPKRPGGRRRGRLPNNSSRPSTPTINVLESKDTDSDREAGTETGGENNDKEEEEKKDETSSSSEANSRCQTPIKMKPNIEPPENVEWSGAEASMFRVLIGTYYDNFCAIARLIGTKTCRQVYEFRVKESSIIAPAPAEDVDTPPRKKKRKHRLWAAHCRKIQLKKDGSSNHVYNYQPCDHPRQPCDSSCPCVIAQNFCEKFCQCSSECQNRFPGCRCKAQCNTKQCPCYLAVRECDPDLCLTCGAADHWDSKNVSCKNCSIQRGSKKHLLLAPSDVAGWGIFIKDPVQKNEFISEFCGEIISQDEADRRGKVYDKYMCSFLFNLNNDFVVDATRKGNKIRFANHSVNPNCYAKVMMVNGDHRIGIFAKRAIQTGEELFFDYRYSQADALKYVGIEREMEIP
PRC2 complex (EZH2 Y641F/EED/SUZ12/RbAp48/AEBP2), sequence (O75530 whole entry partner): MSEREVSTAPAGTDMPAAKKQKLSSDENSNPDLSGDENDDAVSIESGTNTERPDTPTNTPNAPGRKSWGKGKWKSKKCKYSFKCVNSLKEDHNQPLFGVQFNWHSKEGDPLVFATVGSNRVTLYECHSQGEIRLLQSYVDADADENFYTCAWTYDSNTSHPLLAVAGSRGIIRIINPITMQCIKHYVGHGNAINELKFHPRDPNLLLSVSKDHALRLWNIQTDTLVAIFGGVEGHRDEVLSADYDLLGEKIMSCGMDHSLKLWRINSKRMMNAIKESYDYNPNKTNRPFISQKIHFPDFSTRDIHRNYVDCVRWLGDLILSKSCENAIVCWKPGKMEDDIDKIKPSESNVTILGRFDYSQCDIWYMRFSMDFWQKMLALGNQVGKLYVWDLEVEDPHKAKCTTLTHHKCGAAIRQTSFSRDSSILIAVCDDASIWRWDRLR
PRC2 complex (EZH2 Y641F/EED/SUZ12/RbAp48/AEBP2), sequence (Q15022 whole entry partner): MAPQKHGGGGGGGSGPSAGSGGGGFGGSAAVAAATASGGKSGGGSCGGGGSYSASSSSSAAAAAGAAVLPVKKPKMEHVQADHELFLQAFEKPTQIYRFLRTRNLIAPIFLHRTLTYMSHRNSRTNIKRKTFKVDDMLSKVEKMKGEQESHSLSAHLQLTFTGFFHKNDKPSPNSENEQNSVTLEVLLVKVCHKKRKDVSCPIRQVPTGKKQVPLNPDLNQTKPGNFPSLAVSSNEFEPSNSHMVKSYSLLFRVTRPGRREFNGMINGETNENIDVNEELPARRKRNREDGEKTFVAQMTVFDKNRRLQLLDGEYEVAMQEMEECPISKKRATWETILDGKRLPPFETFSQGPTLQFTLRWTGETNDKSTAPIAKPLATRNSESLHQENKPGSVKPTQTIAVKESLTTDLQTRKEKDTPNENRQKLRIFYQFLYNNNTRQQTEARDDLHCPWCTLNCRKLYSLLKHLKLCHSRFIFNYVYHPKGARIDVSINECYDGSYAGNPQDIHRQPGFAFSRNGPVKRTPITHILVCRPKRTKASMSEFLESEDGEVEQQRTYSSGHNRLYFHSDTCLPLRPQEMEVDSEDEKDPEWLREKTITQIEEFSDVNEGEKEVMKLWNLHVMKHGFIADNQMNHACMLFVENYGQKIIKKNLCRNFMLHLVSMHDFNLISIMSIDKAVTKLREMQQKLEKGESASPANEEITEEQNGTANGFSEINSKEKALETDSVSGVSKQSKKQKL
PRC2 complex (EZH2 Y641F/EED/SUZ12/RbAp48/AEBP2), sequence (Q09028 whole entry partner): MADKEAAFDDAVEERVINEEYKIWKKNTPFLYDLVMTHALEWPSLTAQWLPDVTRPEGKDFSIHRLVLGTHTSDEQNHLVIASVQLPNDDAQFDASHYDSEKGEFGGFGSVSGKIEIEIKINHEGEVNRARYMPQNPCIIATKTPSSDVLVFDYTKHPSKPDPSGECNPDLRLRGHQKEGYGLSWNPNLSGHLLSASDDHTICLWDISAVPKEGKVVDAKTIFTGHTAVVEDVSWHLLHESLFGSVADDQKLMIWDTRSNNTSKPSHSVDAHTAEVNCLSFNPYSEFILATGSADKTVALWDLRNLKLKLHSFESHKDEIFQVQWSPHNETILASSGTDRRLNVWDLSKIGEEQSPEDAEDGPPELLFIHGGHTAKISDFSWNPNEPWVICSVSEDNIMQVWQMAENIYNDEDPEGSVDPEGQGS
PRC2 complex (EZH2 Y641F/EED/SUZ12/RbAp48/AEBP2), sequence (Q6ZN18 whole entry partner): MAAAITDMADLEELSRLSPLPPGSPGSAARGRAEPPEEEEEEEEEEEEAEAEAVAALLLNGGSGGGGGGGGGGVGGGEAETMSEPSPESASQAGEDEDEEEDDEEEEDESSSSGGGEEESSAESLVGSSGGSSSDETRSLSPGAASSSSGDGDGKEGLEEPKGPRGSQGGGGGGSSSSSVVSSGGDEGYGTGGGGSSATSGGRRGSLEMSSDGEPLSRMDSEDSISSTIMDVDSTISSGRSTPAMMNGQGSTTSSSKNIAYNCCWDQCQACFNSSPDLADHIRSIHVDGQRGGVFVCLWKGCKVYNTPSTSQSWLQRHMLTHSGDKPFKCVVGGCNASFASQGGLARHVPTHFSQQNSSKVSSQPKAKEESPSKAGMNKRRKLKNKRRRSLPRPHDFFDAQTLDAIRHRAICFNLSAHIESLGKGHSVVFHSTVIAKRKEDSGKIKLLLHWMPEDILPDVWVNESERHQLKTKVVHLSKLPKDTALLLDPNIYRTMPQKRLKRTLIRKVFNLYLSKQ

This experiment has as its target PRC2 complex (EZH2 Y641F/EED/SUZ12/RbAp48/AEBP2) (Homo sapiens (Human), UniProt Q15910, Y641F). The experiment is described as follows: Activity of a compound to PRC2 complex (EZH2 Y641F), HTRF. The conditions noted are these: read-out: IC50 (EZH2_Y641F); EZH2 Y641F PRC2 complex, HTRF; class symbols.
Protocol: Determination of the Activity of a Compound to PRC2 Complex (EZH2Y641F):
Detection Method: Homogeneous Time-Resolved Fluorescence (HTRF)
Reaction was conducted in darkness at room temperature for 4 h. […] The IC50 values of the compounds were calculated using SoftMax Pro 5.4.1 software.
The IC50 is the concentration that gives 50% inhibition. As to “1-(2-chloropyridin-4-yl)-N-((4-methoxy-6-methyl-2-oxo-1,2-dihydropyridin-3-yl)methyl)-6-methyl-5-(1-(4-(2,2,2-trifluoroethyl)piperazin-1-yl)ethyl)indolizine-7-carboxamide [Compound 167]”, the half-maximal inhibitory concentration (IC50) was less than 0.1 µM. In the case of `Cc1cc(C)c(CNC(=O)c2cc3c(-c4ccc(N)nc4)ccn3c([C@H](C)N3CCN(CC(F)(F)F)CC3)c2C)c(=O)[nH]1` (single isomer, unassigned) [Compound 160, (S)-1-(6-aminopyridin-3-yl)-N-((4,6-dimethyl-2-oxo-1,2-dihydropyridin-3-yl)methyl)-6-methyl-5-(1-(4-(2,2,2-trifluoroethyl)piperazin-1-yl)ethyl)indolizine-7-carboxamide or (R) 1-(6-aminopyridin-3-yl)-N-((4,6-dimethyl-2-oxo-1,2-dihydropyridin-3-yl)methyl)-6-methyl-5-(1-(4-(2,2,2-trifluoroethyl)piperazin-1-yl)ethyl)indolizine-7-carboxamide], the half-maximal inhibitory concentration (IC50) was less than 0.1 µM. `CNc1ccc(-c2ccn3c([C@H](C)N4CCN(CC(F)(F)F)CC4)c(C)c(C(=O)NCc4c(OC)cc(C)[nH]c4=O)cc23)cn1` (single isomer, unassigned) [Compound 164, (S)—N-((4-methoxy-6-methyl-2-oxo-1,2-dihydropyridin-3-yl)methyl)-6-methyl-1-(6-(methylamino)pyridin-3-yl)-5-(1-(4-(2,2,2-trifluoroethyl)piperazin-1-yl)ethyl)indolizine-7-formamide or (R)—N-((4-methoxy-6-methyl-2-oxo-1,2-dihydropyridin-3-yl)methyl)-6-methyl-1-(6-(methylamino)pyridin-3-yl)-5-(1-(4-(2,2,2-trifluoroethyl)piperazin-1-yl)ethyl)indolizine-7-formamide]: the IC50 lay in the range of 0.1 to 1 µM. Turning to `CNc1ccc(-c2ccn3c([C@H](C)N4CCN(CC(F)(F)F)CC4)c(C)c(C(=O)NCc4c(OC)cc(C)[nH]c4=O)cc23)cn1` (single isomer, unassigned) [Compound 165, (S)—N-((4-methoxy-6-methyl-2-oxo-1,2-dihydropyridin-3-yl)methyl)-6-methyl-1-(6-(methylamino)pyridin-3-yl)-5-(1-(4-(2,2,2-trifluoroethyl)piperazin-1-yl)ethyl)indolizine-7-formamide or (R)—N-((4-methoxy-6-methyl-2-oxo-1,2-dihydropyridin-3-yl)methyl)-6-methyl-1-(6-(methylamino)pyridin-3-yl)-5-(1-(4-(2,2,2-trifluoroethyl)piperazin-1-yl)ethyl)indolizine-7-formamide], the IC50 was less than 0.1 µM. Under `COc1cc(C)[nH]c(=O)c1CNC(=O)c1cc2c(-c3ccnc(Cl)c3)ccn2c([C@H](C)N2CCN(CC(F)(F)F)CC2)c1C` (single isomer, unassigned) [Compound 168, (S)-1-(2-chloropyridin-4-yl)-N-((4-methoxy-6-methyl-2-oxo-1,2-dihydropyridine-3-yl)methyl)-6-methyl-5-(1-(4-(2,2,2-trifluoroethyl)piperazin-1-yl)ethyl)indolizine-7-carboxamide or (R) 1-(2-chloropyridin-4-yl)-N-((4-methoxy-6-methyl-2-oxo-1,2-dihydropyridine-3-yl)methyl)-6-methyl-5-(1-(4-(2,2,2-trifluoroethyl)piperazin-1-yl)ethyl)indolizine-7-carboxamide] stands 0.1 to 1 µM; under `COc1cc(C)[nH]c(=O)c1CNC(=O)c1cc2c(-c3ccnc(Cl)c3)ccn2c([C@H](C)N2CCN(CC(F)(F)F)CC2)c1C` (single isomer, unassigned) [Compound 169, (S)-1-(2-chloropyridin-4-yl)-N-((4-methoxy-6-methyl-2-oxo-1,2-dihydropyridine-3-yl)methyl)-6-methyl-5-(1-(4-(2,2,2-trifluoroethyl)piperazin-1-yl)ethyl)indolizine-7-carboxamide or (R) 1-(2-chloropyridin-4-yl)-N-((4-methoxy-6-methyl-2-oxo-1,2-dihydropyridine-3-yl)methyl)-6-methyl-5-(1-(4-(2,2,2-trifluoroethyl)piperazin-1-yl)ethyl)indolizine-7-carboxamide], less than 0.1 µM; under `COc1cc(C)[nH]c(=O)c1CNC(=O)c1cc2c(-c3ccnc(N(C)C)c3)ccn2c([C@H](C)N2CCN(CC(F)(F)F)CC2)c1C` (single isomer, unassigned) [Compound 171, (S)-1-(2-(dimethylamino)pyridin-4-yl)-N-((4-methoxy-6-methyl-2-oxo-1,2-dihydropyridine-3-yl)methyl)-6-methyl-5-(1-(4-(2,2,2-trifluoroethyl)piperazin-1-yl)ethyl)indolizine-7-carboxamide or (R) 1-(2-(dimethylamino)pyridin-4-yl)-N-((4-methoxy-6-methyl-2-oxo-1,2-dihydropyridine-3-yl)methyl)-6-methyl-5-(1-(4-(2,2,2-trifluoroethyl)piperazin-1-yl)ethyl)indolizine-7-carboxamide], less than 0.1 µM. Under `COc1cc(C)[nH]c(=O)c1CNC(=O)c1cc2c(-c3ccnc(N(C)C)c3)ccn2c([C@H](C)N2CCN(CC(F)(F)F)CC2)c1C` (single isomer, unassigned) [Compound 172, (S)-1-(2-(dimethylamino)pyridin-4-yl)-N-((4-methoxy-6-methyl-2-oxo-1,2-dihydropyridine-3-yl)methyl)-6-methyl-5-(1-(4-(2,2,2-trifluoroethyl)piperazin-1-yl)ethyl)indolizine-7-carboxamide or (R) 1-(2-(dimethylamino)pyridin-4-yl)-N-((4-methoxy-6-methyl-2-oxo-1,2-dihydropyridine-3-yl)methyl)-6-methyl-5-(1-(4-(2,2,2-trifluoroethyl)piperazin-1-yl)ethyl)indolizine-7-carboxamide] stands 0.1 to 1 µM; under `COc1cc(C)[nH]c(=O)c1CNC(=O)c1cc2c(-c3cc(C)nc(C)c3)ccn2c([C@H](C)N2CCN(CC(F)(F)F)CC2)c1C` (single isomer, unassigned) [Compound 174, (S)-1-(2,6-dimethylpyridin-4-yl)-N-((4-methoxy-6-methyl-2-oxo-1,2-dihydropyridine-3-yl)methyl)-6-methyl-5-(1-(4-(2,2,2-trifluoroethyl)piperazin-1-yl)ethyl)indolizine-7-carboxamide or (R) 1-(2,6-dimethylpyridin-4-yl)-N-((4-methoxy-6-methyl-2-oxo-1,2-dihydropyridine-3-yl)methyl)-6-methyl-5-(1-(4-(2,2,2-trifluoroethyl)piperazin-1-yl)ethyl)indolizine-7-carboxamide], less than 0.1 µM. As for `COc1cc(C)[nH]c(=O)c1CNC(=O)c1cc2c(-c3cc(C)nc(C)c3)ccn2c([C@H](C)N2CCN(CC(F)(F)F)CC2)c1C` (single isomer, unassigned) [Compound 175, (S)-1-(2,6-dimethylpyridin-4-yl)-N-((4-methoxy-6-methyl-2-oxo-1,2-dihydropyridine-3-yl)methyl)-6-methyl-5-(1-(4-(2,2,2-trifluoroethyl)piperazin-1-yl)ethyl)indolizine-7-carboxamide or (R) 1-(2,6-dimethylpyridin-4-yl)-N-((4-methoxy-6-methyl-2-oxo-1,2-dihydropyridine-3-yl)methyl)-6-methyl-5-(1-(4-(2,2,2-trifluoroethyl)piperazin-1-yl)ethyl)indolizine-7-carboxamide], the concentration for half-maximal inhibition (IC50) lay in the range of 0.1 to 1 µM. `COc1cc(C)[nH]c(=O)c1CNC(=O)c1cc2c(-c3ccc(C)nc3C)ccn2c([C@H](C)N2CCN(CC(F)(F)F)CC2)c1C` (single isomer, unassigned) [Compound 177, (S)-1-(2,6-dimethylpyridin-3-yl)-N-((4-methoxy-6-methyl-2-oxo-1,2-dihydropyridine-3-yl)methyl)-6-methyl-5-(1-(4-(2,2,2-trifluoroethyl)piperazin-1-yl)ethyl)indolizine-7-carboxamide or (R) 1-(2,6-dimethylpyridin-3-yl)-N-((4-methoxy-6-methyl-2-oxo-1,2-dihydropyridine-3-yl)methyl)-6-methyl-5-(1-(4-(2,2,2-trifluoroethyl)piperazin-1-yl)ethyl)indolizine-7-carboxamide]: the concentration for half-maximal inhibition (IC50) is less than 0.1 µM.

For `COc1cc(C)[nH]c(=O)c1CNC(=O)c1cc2c(-c3ccc(C)nc3C)ccn2c([C@H](C)N2CCN(CC(F)(F)F)CC2)c1C` (single isomer, unassigned) [Compound 178, (S)-1-(2,6-dimethylpyridin-3-yl)-N-((4-methoxy-6-methyl-2-oxo-1,2-dihydropyridine-3-yl)methyl)-6-methyl-5-(1-(4-(2,2,2-trifluoroethyl)piperazin-1-yl)ethyl)indolizine-7-carboxamide or (R) 1-(2,6-dimethylpyridin-3-yl)-N-((4-methoxy-6-methyl-2-oxo-1,2-dihydropyridine-3-yl)methyl)-6-methyl-5-(1-(4-(2,2,2-trifluoroethyl)piperazin-1-yl)ethyl)indolizine-7-carboxamide], the IC50 lay within 0.1 to 1 µM. Under `CNc1cc(-c2ccn3c([C@H](C)N4CCN(CC(F)(F)F)CC4)c(C)c(C(=O)NCc4c(OC)cc(C)[nH]c4=O)cc23)ccn1` (single isomer, unassigned) [Compound 181, (S)—N-((4-methoxy-6-methyl-2-oxo-1,2-dihydropyridin-3-yl)methyl)-6-methyl-1-(2-(methylamino)pyridin-4-yl)-5-(1-(4-(2,2,2-trifluoroethyl)piperazin-1-yl)ethyl)indolizine-7-formamide or (R)—N-((4-methoxy-6-methyl-2-oxo-1,2-dihydropyridin-3-yl)methyl)-6-methyl-1-(2-(methylamino)pyridin-4-yl)-5-(1-(4-(2,2,2-trifluoroethyl)piperazin-1-yl)ethyl)indolizine-7-formamide] stands less than 0.1 µM.
